Data published in patent US10829427B2, “Naphthoquinones, pro-drugs, and methods of use thereof” (The Board of Regents of the University of Texas System, priority 2015, dated 2020).

Test system: Mia PaCa-2 cells
Assay: ATP assay (ATP depletion / cell viability) in Mia PaCa-2 cells
Format: cell-based, human
Details: Relative activity compare with β-lapachone in ATP depletion of Mia PaCa-2 cells
Procedure: In vitro anti-cancer activity of the compound were performed using ATP Assay Kit (Abcam, ab83355) to initially screen, and further performed using 7-day DNA assay.
Cell culture: endogenous NQO1 overexpressing human MIA PaCa-2 pancreactic and A549 NSCLC cancer cells were obtained (Bey, et al., 2007; Li, et al., 2011). Cancer cells were grown in DMEM with 5% FBS and Mycoplasma free, and cultured at 37° C. in a 5% CO2 95% air humidified atmosphere.
ATP assay: Cells were seeded into each well of a 96-well plate (15000 cells/well) 18 hours ahead of experiment. After aspiration of the media from each well, 100 μl drug-contained media was added instead, and further incubated for 2 hours. After incubation, 100 μl ATP assay kit mixture was added into every well. Following further shaking for 10 minutes with light proof, the data were collected by reading luminescence integrate 1 second per well.

IC50/IC50 (β-lapachone/Compoud)	SMILES
<0.3	O=C1C=C(OC2CCCCC2)c2ccc(Cl)cc2C1=O [Compound 5, 7-chloro-4-(cyclohexyloxy)naphthalene-1,2-dione]
<0.3	CC(=O)Nc1cccc2c1C(=O)C(=O)C=C2OC1CCCCC1 [Compound 25, N-(5-(cyclohexyloxy)-7,8-dioxo-7,8-dihydronaphthalen-1-yl)acetamide]
1~3	COC1=CC(=O)C(=O)c2c(NC(C)=O)cccc21 [Compound 46, N-(5-methoxy-7,8-dioxo-7,8-dihydronaphthalen-1-yl)acetamide]
<0.3	CC(C)OC1=CC(=O)C(=O)c2cccc(Br)c21 [Compound 32, 5-bromo-4-isopropoxynaphthalene-1,2-dione]
<0.3	CS(=O)(=O)Nc1cccc2c1C(=O)C(=O)C=C2OC1CCCCC1 [Compound 26, N-(5-(cyclohexyloxy)-7,8-dioxo-7,8-dihydronaphthalen-1-yl)methanesulfonamide]
0.3~1	O=C1C=C(OC2CCCCC2)c2cccc(O)c2C1=O [Compound 39, 4-(cyclohexyloxy)-8-hydroxynaphthalene-1,2-dione]
<0.3	CC(=O)Nc1cccc2c1C(=O)C(=O)C=C2OCCCO [Compound 27, N-(5-(3-hydroxypropoxy)-7,8-dioxo-7,8-dihydronaphthalen-1-yl)acetamide]
<0.3	CC(C)OC1=CC(=O)C(=O)c2cccc(O)c21 [Compound 40, 5-hydroxy-4-isopropoxynaphthalene-1,2-dione]
0.3~1	CC(C)OC1=CC(=O)C(=O)c2cccc([N+](=O)[O-])c21 [Compound 7, 4-isopropoxy-5-nitronaphthalene-1,2-dione]
0.3~1	O=C1C=C(OC2CCCCC2)c2cccc(Cl)c2C1=O [Compound 16, 8-chloro-4-(cyclohexyloxy)naphthalene-1,2-dione]
<0.3	CCC(CC)OC1=CC(=O)C(=O)c2c(NC(C)=O)cccc21 [Compound 52, N-(7,8-dioxo-5-(pentan-3-yloxy)-7,8-dihydronaphthalen-1-yl)acetamide]
0.3~1	CC(=O)Nc1cccc2c1C(=O)C(=O)C=C2OCCN1CCOCC1 [Compound 43, N-(5-(2-morpholinoethoxy)-7,8-dioxo-7,8-dihydronaphthalen-1-yl)acetamide]
0.3~1	CC(C)OC1=CC(=O)C(=O)c2c(Cl)cccc21 [Compound 14, 8-chloro-4-isopropoxynaphthalene-1,2-dione]
0.3~1	O=C1C=C(OC2CCCCC2)c2cc(Cl)ccc2C1=O [Compound 35, 6-chloro-4-(cyclohexyloxy)naphthalene-1,2-dione]
<0.3	CC(C)OC1=CC(=O)C(=O)c2c(N)cccc21 [Compound 29, 8-amino-4-isopropoxynaphthalene-1,2-dione]
<0.3	CC(C)OC1=CC(=O)C(=O)c2c(NC(=O)C(F)(F)F)cccc21 [Compound 19, 2,2,2-trifluoro-N-(5-isopropoxy-7,8-dioxo-7,8-dihydronaphthalen-1-yl)acetamide]
<0.3	O=C1C=C(OC2CCCCC2)c2ccc(Br)cc2C1=O [Compound 2, 7-bromo-4-(cyclohexyloxy)naphthalene-1,2-dione]
<0.3	CC(C)OC1=CC(=O)C(=O)c2cccc(Cl)c21 [Compound 6, 5-chloro-4-isopropoxynaphthalene-1,2-dione]

Second part, the compound before the results:

SMILES	IC50/IC50 (β-lapachone/Compoud)
CC(C)OC1=CC(=O)C(=O)c2cc3c(cc21)OCO3 [Compound 9, 8-isopropoxynaphtho[2,3-d][1,3]dioxole-5,6-dione]	<0.3
CC(C)OC1=C(Br)C(=O)c2ccccc2C1=O [Compound 12, 2-bromo-3-isopropoxynaphthalene-1,4-dione]	<0.3
COCCOCCOCCOCCOC1=CC(=O)C(=O)c2c(NS(C)(=O)=O)cccc21 [Compound 56, N-(5-(2,5,8,11-tetraoxatridecan-13-yloxy)-7,8-dioxo-7,8-dihydronaphthalen-1-yl)methanesulfonamide]	<0.3
CC(C)OC1=CC(=O)C(=O)c2ccc(NC(=O)OC(C)(C)C)cc21 [Compound 33, tert-butyl (8-isopropoxy-5,6-dioxo-5,6-dihydronaphthalen-2-yl)carbamate]	<0.3
CC(C)OC1=CC(=O)C(=O)c2cc(F)ccc21 [Compound 3, 7-fluoro-4-isopropoxynaphthalene-1,2-dione]	<0.3
CC(C)OC1=CC(=O)c2cccc(NC(=O)C(F)(F)F)c2C1=O [Compound 20, 2,2,2-trifluoro-N-(7-isopropoxy-5,8-dioxo-5,8-dihydronaphthalen-1-yl)acetamide]	<0.3
Cc1ccc(S(=O)(=O)Nc2cccc3c2C(=O)C(=O)C=C3OC(C)C)cc1 [Compound 17, N-(5-isopropoxy-7,8-dioxo-7,8-dihydronaphthalen-1-yl)-4-methylbenzenesulfonamide]	<0.3
CC(C)OC1=CC(=O)C(=O)c2cccc(OCCN3CCOCC3)c21 [Compound 42, 4-isopropoxy-5-(2-morpholinoethoxy)naphthalene-1,2-dione]	<0.3
CC(C)OC1=CC(=O)c2cccc(NS(C)(=O)=O)c2C1=O [Compound 22, N-(7-isopropoxy-5,8-dioxo-5,8-dihydronaphthalen-1-yl)methanesulfonamide]	<0.3
CC(C)OC1=CC(=O)C(=O)c2ccc(Br)cc21 [Compound 36, 6-bromo-4-isopropoxynaphthalene-1,2-dione]	<0.3
CCCCOC1=CC(=O)C(=O)c2c(NC(C)=O)cccc21 [Compound 50, N-(5-butoxy-7,8-dioxo-7,8-dihydronaphthalen-1-yl)acetamide]	1~2
CCCCCCCCOC1=CC(=O)C(=O)c2c(NC(C)=O)cccc21 [Compound 51, N-(5-(octyloxy)-7,8-dioxo-7,8-dihydronaphthalen-1-yl)acetamide]	<0.3
CC(C)Nc1cccc2c1C(=O)C(OC(C)C)=CC2=O [Compound 31, 2-isopropoxy-8-(isopropylamino)naphthalene-1,4-dione]	<0.3
CC(C)OC1=C(Cl)C(=O)C(=O)c2ccccc21 [Compound 13, 3-chloro-4-isopropoxynaphthalene-1,2-dione]	<0.3
COC1=C(C)C(=O)C(=O)c2c(NC(C)=O)cccc21 [Compound 47, N-(5-methoxy-6-methyl-7,8-dioxo-7,8-dihydronaphthalen-1-yl)acetamide]	<0.3
CCC(CC)OC1=CC(=O)C(=O)c2c(NS(C)(=O)=O)cccc21 [Compound 53, N-(7,8-dioxo-5-(pentan-3-yloxy)-7,8-dihydronaphthalen-1-yl)methanesulfonamide]	<0.3
CCCCCCCCOC1=CC(=O)C(=O)c2c(NS(C)(=O)=O)cccc21 [Compound 55, N-(5-(octyloxy)-7,8-dioxo-7,8-dihydronaphthalen-1-yl)methanesulfonamide]	1~2
CCCCCCOC1=CC(=O)C(=O)c2c(NS(C)(=O)=O)cccc21 [Compound 54, N-(5-(hexyloxy)-7,8-dioxo-7,8-dihydronaphthalen-1-yl)methanesulfonamide]	<0.3
CC(=O)Nc1cccc2c1C(=O)C(OCCN(C)C)=CC2=O [Compound 45, N-(7-(2-(dimethylamino)ethoxy)-5,8-dioxo-5,8-dihydronaphthalen-1-yl)acetamide]	1~2
CC(C)OC1=C(Br)C(=O)C(=O)c2ccccc21 [Compound 11, 3-bromo-4-isopropoxynaphthalene-1,2-dione]	<0.3
COc1cc2c(cc1OC)C(OC(C)C)=CC(=O)C2=O [Compound 8, 4-isopropoxy-6,7-dimethoxynaphthalene-1,2-dione]	<0.3
CC(=O)Nc1cccc2c1C(=O)C(OCCN1CCOCC1)=CC2=O [Compound 44, N-(7-(2-morpholinoethoxy)-5,8-dioxo-5,8-dihydronaphthalen-1-yl)acetamide]	0.3~1
CC(C)OC1=CC(=O)C(=O)c2c(NS(=O)(=O)C(F)(F)F)cccc21 [Compound 23, 1,1,1-trifluoro-N-(5-isopropoxy-7,8-dioxo-7,8-dihydronaphthalen-1-yl)methanesulfonamide]	<0.3
Cc1cc(C)c2c(c1)C(=O)C(=O)C=C2OC(C)C [Compound 10, 4-isopropoxy-5,7-dimethylnaphthalene-1,2-dione]	<0.3
CC(C)OC1=CC(=O)C(=O)c2cc(Br)ccc21 [Compound 1, 7-bromo-4-isopropoxynaphthalene-1,2-dione]	<0.3
